Laboratory results: patent US20170217976A1, “6-(AMINO ACID)-MORPHINAN DERIVATIVES IN COMBINATION WITH PERMEATION […] FOR USE AS AN ORALLY, […], TRA[…] NASALLY AD[…]” (C[…], priority 2014, published 2017)
pEC50, pKi: −log10 of the molar value. Where two headings read alike, the source gives them in different places.

Tests used:
MOR = target: T1, MOR (Rattus norvegicus, UniProt P33535); assay: Opioid receptor binding, MOR, rat brain membranes; conditions: for Ki: in vitro binding assay, rat brain membranes
T1 construct: from tissue
T1 sequence (P33535 whole entry): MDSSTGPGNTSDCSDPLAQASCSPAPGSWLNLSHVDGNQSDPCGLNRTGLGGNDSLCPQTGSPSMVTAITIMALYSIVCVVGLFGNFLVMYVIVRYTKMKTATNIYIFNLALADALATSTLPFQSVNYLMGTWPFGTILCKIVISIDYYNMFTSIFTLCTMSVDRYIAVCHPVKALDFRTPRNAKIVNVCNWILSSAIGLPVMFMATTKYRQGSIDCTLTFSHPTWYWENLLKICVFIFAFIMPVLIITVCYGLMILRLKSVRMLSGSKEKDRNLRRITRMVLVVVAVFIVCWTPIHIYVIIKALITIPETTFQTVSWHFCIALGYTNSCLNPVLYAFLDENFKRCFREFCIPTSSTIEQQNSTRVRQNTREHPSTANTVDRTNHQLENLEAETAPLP

[1] = target: T2, human MOP expressed in CHO cells (Homo sapiens, UniProt P35372); assay: [35S]GTPγS binding, antagonism at MOR (Ke against DAMGO); assay type: biochemical; conditions: for Kb: [35S]GTPγS binding, MOR Ke, Table 1-6, antagonist Ke measured against DAMGO
T2 construct: expressed in transfected cells; host or cells: CHO cells (per the unit's head)
T2 sequence (P35372 whole entry): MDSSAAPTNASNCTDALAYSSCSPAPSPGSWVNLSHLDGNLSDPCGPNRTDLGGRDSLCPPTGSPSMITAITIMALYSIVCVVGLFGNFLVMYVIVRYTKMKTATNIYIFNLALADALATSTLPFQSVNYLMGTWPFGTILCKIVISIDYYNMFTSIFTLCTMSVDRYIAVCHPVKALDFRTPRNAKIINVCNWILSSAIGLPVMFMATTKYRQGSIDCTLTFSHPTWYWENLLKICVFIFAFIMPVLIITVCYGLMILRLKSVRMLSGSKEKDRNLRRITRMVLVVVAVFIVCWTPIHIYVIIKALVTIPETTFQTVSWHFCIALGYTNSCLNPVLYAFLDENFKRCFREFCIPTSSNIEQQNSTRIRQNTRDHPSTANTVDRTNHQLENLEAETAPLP

KOR = target: T3, KOR (Cavia porcellus, UniProt P41144); assay: Opioid receptor binding, KOR, guinea pig brain membranes; conditions: for Ki: in vitro binding assay, guinea pig brain membranes
T3 construct: from tissue
T3 sequence (P41144 whole entry): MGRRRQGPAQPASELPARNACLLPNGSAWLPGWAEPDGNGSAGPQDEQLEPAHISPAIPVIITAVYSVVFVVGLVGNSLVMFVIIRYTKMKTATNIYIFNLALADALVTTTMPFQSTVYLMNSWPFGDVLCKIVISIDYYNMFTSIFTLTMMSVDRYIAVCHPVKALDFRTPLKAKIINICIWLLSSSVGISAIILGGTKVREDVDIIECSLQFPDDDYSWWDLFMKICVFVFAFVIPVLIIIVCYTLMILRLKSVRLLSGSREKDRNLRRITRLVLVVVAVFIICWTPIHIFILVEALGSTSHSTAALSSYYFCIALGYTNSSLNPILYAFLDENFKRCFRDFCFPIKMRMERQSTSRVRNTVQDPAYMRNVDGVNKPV

DOR = target: T4, DOR (Rattus norvegicus, UniProt P33533); assay: Opioid receptor binding, DOR, rat brain membranes; conditions: for Ki: in vitro binding assay, rat brain membranes
T4 construct: from tissue
T4 sequence (P33533 whole entry): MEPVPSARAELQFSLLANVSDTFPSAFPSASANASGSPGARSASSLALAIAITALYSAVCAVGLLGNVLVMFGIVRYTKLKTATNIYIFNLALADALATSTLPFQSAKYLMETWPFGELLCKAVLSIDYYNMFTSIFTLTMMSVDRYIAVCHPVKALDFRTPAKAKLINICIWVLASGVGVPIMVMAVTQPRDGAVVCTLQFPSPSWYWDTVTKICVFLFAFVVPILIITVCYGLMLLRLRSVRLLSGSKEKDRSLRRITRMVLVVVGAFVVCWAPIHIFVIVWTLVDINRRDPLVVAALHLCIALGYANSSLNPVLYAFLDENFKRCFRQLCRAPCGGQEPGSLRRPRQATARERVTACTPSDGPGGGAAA

[2] = Binding Ki MOR, Table 1-6, rat brain membranes
[3] = Binding Ki MOR, Table 2-6, rat brain membranes
[4] = Binding Ki KOR, Table 1-6, guinea pig brain membranes
[5] = Binding Ki KOR, Table 2-6, guinea pig brain membranes
[6] = Binding Ki DOR, Table 1-6, rat brain membranes
[7] = Binding Ki DOR, Table 2-6, rat brain membranes
[8] = Binding Ki MOR, Table 1-4, rat brain membranes
[9] = Binding Ki KOR, Table 1-4, guinea pig brain membranes
[10] = Binding Ki DOR, Table 1-4, rat brain membranes

Structure (SMILES): O=C(O)C(Cc1ccccc1)NC1CCC2(O)C3Cc4ccc(O)c5c4C2(CCN3CC2CC2)C1O5 (single isomer, unassigned) [Compound 59]
- pKi (MOR; [2]): 8.85
- pKi (MOR; [3]): 8.85
- pEC50 [1]: < 5.00
- Kb [1]: 0.25 nM
- pKi (KOR; [4]): 8.58
- pKi (KOR; [5]): 8.58
- pKi (DOR; [6]): 8.45
- pKi (DOR; [7]): 8.45

Structure (SMILES): O=C(O)C(Cc1ccccc1)NC1CCC2(O)C3Cc4ccc(O)c5c4C2(CCN3CC2CC2)C1O5 (single isomer, unassigned) [Compound 60]
- pKi (MOR; [2]): 8.74
- pKi (MOR; [3]): 8.74
- Kb [1]: 0.24 nM
- pEC50 ([1]; read-out: [35S]GTPγS binding, MOR EC50, Table 1-6, stimulation of [35S]GTPγS binding): < 5.00
- pKi (KOR; [4]): 8.05
- pKi (KOR; [5]): 8.05
- pKi (DOR; [6]): 8.55
- pKi (DOR; [7]): 8.55

Structure (SMILES): CCO[C@@]12CCC(=O)[C@@H]3Oc4c(O)ccc5c4[C@@]31CCN(CC1CC1)[C@@H]2C5 [Compound 14-OEt-NTX, 14-O-Ethylnaltrexone, reference compound]
- pKi (MOR; [2]): 9.46
- pKi (MOR; [3]): 9.46
- pEC50 [1]: < 5.00
- Kb [1]: 0.31 nM
- pKi (KOR; [4]): 9.03
- pKi (KOR; [5]): 9.03
- pKi (DOR; [6]): 8.38
- pKi (DOR; [7]): 8.38

Structure (SMILES): CO[C@@]12CC[C@H](N[C@@H](CCC(N)=O)C(=O)O)[C@@H]3Oc4c(O)ccc5c4[C@@]31CCN(C)[C@@H]2C5 [Compound 17]
- Ki (MOR; Binding Ki (nM) MOR): 3.24 nM
- pKi (MOR; [8]): 8.49
- Ki (KOR; Binding Ki (nM) KOR): 351 nM
- pKi (KOR; [9]): 6.45
- Ki (DOR; Binding Ki (nM) DOR): 5.13 nM
- pKi (DOR; [10]): 8.29

Structure (SMILES): CO[C@@]12CC[C@@H](N[C@@H](CCC(N)=O)C(=O)O)[C@@H]3Oc4c(O)ccc5c4[C@@]31CCN(C)[C@@H]2C5 [Compound 18]
- Ki (MOR; Binding Ki (nM) MOR): 2.48 nM
- pKi (MOR; [8]): 8.61
- Ki (KOR; Binding Ki (nM) KOR): 290 nM
- pKi (KOR; [9]): 6.54
- Ki (DOR; Binding Ki (nM) DOR): 4.87 nM
- pKi (DOR; [10]): 8.31

Structure (SMILES): CO[C@@]12CC[C@H](N[C@@H](CCSC)C(=O)O)[C@@H]3Oc4c(O)ccc5c4[C@@]31CCN(C)[C@@H]2C5 [Compound 23]
- Ki (MOR; Binding Ki (nM) MOR): 0.93 nM
- pKi (MOR; [8]): 9.03
- Ki (KOR; Binding Ki (nM) KOR): 109 nM
- pKi (KOR; [9]): 6.96
- Ki (DOR; Binding Ki (nM) DOR): 4.03 nM
- pKi (DOR; [10]): 8.39

Structure (SMILES): CO[C@@]12CC[C@@H](N[C@@H](CCSC)C(=O)O)[C@@H]3Oc4c(O)ccc5c4[C@@]31CCN(C)[C@@H]2C5 [Compound 24]
- Ki (MOR; Binding Ki (nM) MOR): 3.88 nM
- pKi (MOR; [8]): 8.41
- Ki (KOR; Binding Ki (nM) KOR): 468 nM
- pKi (KOR; [9]): 6.33
- Ki (DOR; Binding Ki (nM) DOR): 2.4 nM
- pKi (DOR; [10]): 8.62

Structure (SMILES): CO[C@@]12CC[C@@H](NCC(=O)NCC(=O)O)[C@@H]3Oc4c(O)ccc5c4[C@@]31CCN(C)[C@@H]2C5 [Compound 25]
- pKi (MOR; [8]): 8.34
- pKi (KOR; [9]): 6.69
- pKi (DOR; [10]): 8.12

Structure (SMILES): CO[C@@]12CC[C@@H](N[C@@H](CC(N)=O)C(=O)O)[C@@H]3Oc4c(O)ccc5c4[C@@]31CCN(C)[C@@H]2C5 [Compound 27]
- Ki (MOR; Binding Ki (nM) MOR): 1.26 nM
- pKi (MOR; [8]): 8.90
- Ki (KOR; Binding Ki (nM) KOR): 103 nM
- pKi (KOR; [9]): 6.99
- Ki (DOR; Binding Ki (nM) DOR): 2.25 nM
- pKi (DOR; [10]): 8.65

Structure (SMILES): CO[C@@]12CC[C@H](N[C@H](C(=O)O)[C@@H](C)O)[C@@H]3Oc4c(O)ccc5c4[C@@]31CCN(C)[C@@H]2C5 [Compound 34]
- Ki (MOR; Binding Ki (nM) MOR): 1.03 nM
- pKi (MOR; [8]): 8.99
- Ki (KOR; Binding Ki (nM) KOR): 120 nM
- pKi (KOR; [9]): 6.92
- Ki (DOR; Binding Ki (nM) DOR): 4.13 nM
- pKi (DOR; [10]): 8.38

Structure (SMILES): CO[C@@]12CC[C@@H](N[C@@H](CCCCN)C(=O)O)[C@@H]3Oc4c(O)ccc5c4[C@@]31CCN(C)[C@@H]2C5 [Compound 39]
- pKi (MOR; Table 1-4, rat brain membranes, read-out: Binding Ki MOR): 9.28
- Ki (MOR; read-out: Binding Ki (nM) MOR): 0.53 nM
- pKi (KOR; Table 1-4, guinea pig brain membranes, read-out: Binding Ki KOR): 7.47
- Ki (KOR; read-out: Binding Ki (nM) KOR): 33.7 nM
- pKi (DOR; Table 1-4, rat brain membranes, read-out: Binding Ki DOR): 8.48
- Ki (DOR; read-out: Binding Ki (nM) DOR): 3.34 nM

Structure (SMILES): CO[C@@]12CC[C@H](N[C@@H](CC(C)C)C(=O)O)[C@@H]3Oc4c(O)ccc5c4[C@@]31CCN(C)[C@@H]2C5 [Compound 40]
- Ki (MOR; Binding Ki (nM) MOR): 0.68 nM
- pKi (MOR; [8]): 9.17
- Ki (KOR; Binding Ki (nM) KOR): 141 nM
- pKi (KOR; [9]): 6.85
- Ki (DOR; Binding Ki (nM) DOR): 2.34 nM
- pKi (DOR; [10]): 8.63

Structure (SMILES): CO[C@@]12CC[C@@H](N[C@@H](CC(C)C)C(=O)O)[C@@H]3Oc4c(O)ccc5c4[C@@]31CCN(C)[C@@H]2C5 [Compound 41]
- Ki (MOR; Binding Ki (nM) MOR): 1.32 nM
- pKi (MOR; [8]): 8.88
- Ki (KOR; Binding Ki (nM) KOR): 297 nM
- pKi (KOR; [9]): 6.53
- Ki (DOR; Binding Ki (nM) DOR): 1.01 nM
- pKi (DOR; [10]): 9.00

Structure (SMILES): CC[C@H](C)[C@H](N[C@H]1CC[C@@]2(OC)[C@H]3Cc4ccc(O)c5c4[C@@]2(CCN3C)[C@H]1O5)C(=O)O [Compound 42]
- Ki (MOR; Binding Ki (nM) MOR): 0.84 nM
- pKi (MOR; [8]): 9.08
- Ki (KOR; Binding Ki (nM) KOR): 131 nM
- pKi (KOR; [9]): 6.88
- Ki (DOR; Binding Ki (nM) DOR): 3.2 nM
- pKi (DOR; [10]): 8.49

Structure (SMILES): CC[C@H](C)[C@H](N[C@@H]1CC[C@@]2(OC)[C@H]3Cc4ccc(O)c5c4[C@@]2(CCN3C)[C@H]1O5)C(=O)O [Compound 43]
- Ki (MOR; Binding Ki (nM) MOR): 1.46 nM
- pKi (MOR; [8]): 8.84
- Ki (KOR; Binding Ki (nM) KOR): 163 nM
- pKi (KOR; [9]): 6.79
- Ki (DOR; Binding Ki (nM) DOR): 1.3 nM
- pKi (DOR; [10]): 8.89

Structure (SMILES): CCO[C@@]12CC[C@H](N[C@@H](Cc3ccccc3)C(=O)O)[C@@H]3Oc4c(O)ccc5c4[C@@]31CCN(CC1CC1)[C@@H]2C5 [Compound 55]
- pKi (MOR; [3]): 9.46
- pKi (KOR; [5]): 8.59
- pKi (DOR; [7]): 9.15

Structure (SMILES): CCO[C@@]12CC[C@@H](N[C@@H](Cc3ccccc3)C(=O)O)[C@@H]3Oc4c(O)ccc5c4[C@@]31CCN(CC1CC1)[C@@H]2C5 [Compound 56]
- pKi (MOR; [3]): 8.98
- pKi (KOR; [5]): 7.94
- pKi (DOR; [7]): 8.75
